Test results taken from patent publication US20140066465A1, “CANCER TREATMENT USING TYROSINE KINASE AND NF-kB INHIBITORS” (The Cleveland Clinic Foundation, priority 2012, published 2014).

How the values were obtained:
[1] = system: erlotinib-resistant NSCLC cell lines (A549, H1975, and H1993); assay: cells
Experimental: Erlotinib-resistance NSCLC cell lines A549, H1975, and H1993 were used.
(§1) The cells were plated in 96-well plates at 2500-3000 cells per well, and allowed to attach overnight, with 6 replicates being used for each dose. First, the inventors detected the IC50 with single drug treatment for each cell line.

sensitive cell lines = assay: MTT cell survival assay, single drug; format: cell-based; conditions: single drug treatment
Experimental: as §1

[2] = in vivo; cited from earlier work
CYP3A4 = CYP3A4 (Homo sapiens, UniProt P08684); conditions: cited from earlier work
CYP3A4, sequence (P08684 whole entry): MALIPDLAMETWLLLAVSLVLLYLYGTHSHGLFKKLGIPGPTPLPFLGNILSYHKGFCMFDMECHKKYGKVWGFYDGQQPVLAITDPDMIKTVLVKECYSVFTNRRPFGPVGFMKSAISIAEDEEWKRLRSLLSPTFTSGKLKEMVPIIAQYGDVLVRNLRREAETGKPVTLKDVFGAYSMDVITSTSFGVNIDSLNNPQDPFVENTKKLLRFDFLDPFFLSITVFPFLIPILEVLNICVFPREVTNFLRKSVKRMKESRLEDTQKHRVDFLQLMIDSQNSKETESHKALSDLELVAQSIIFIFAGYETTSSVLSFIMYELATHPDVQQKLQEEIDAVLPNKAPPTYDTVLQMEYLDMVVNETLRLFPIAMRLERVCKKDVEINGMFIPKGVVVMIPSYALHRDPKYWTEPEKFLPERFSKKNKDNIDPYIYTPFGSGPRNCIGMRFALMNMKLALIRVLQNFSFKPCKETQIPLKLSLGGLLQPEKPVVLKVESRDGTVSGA

H1975 cells = assay: PARP cleavage Western blot; format: cell-based; conditions: 5 μM quinacrine, time course
NF-κB [3] = system: NF-κB
Experimental: For the NF-κB luciferase assay, A549 or H1975 cells were infected with the κB-luciferse construct PLANFκBluc and stably selected with puromycin or hygromycin. The reporter cells were then seeded in 96-well plates at 1-2×10^3 per well, allowed to attach overnight, and then treated with drugs and/or interleukin-1 for four hours. Cells were then harvested in reporter lysis buffer (Promega) and assayed for luciferase activity using the luciferase assay system (Promega).

NF-κB [4] = conditions: A549 or H1975 reporter cells; pretreated, then interleukin-1 for 6 h
Experimental: The reporter cells were then seeded in 96-well plates at 1-2×10^3 per well, allowed to attach overnight, and then treated with drugs and/or IL-1. Cells were then harvested in reporter lysis buffer (Promega) and assayed for luciferase activity using the luciferase assay system (Promega).

[5] = system: xenograft tumors originating from human renal cell carcinoma; conditions: mice; cited from earlier work

IC50 [1]	SMILES	IC50 (sensitive cell lines)	half life [2]	route of clearance (CYP3A4)	Apoptosis by PARP cleavage (H1975 cells)	NF-κB-dependent luciferase reporter activity (NF-κB [3]; A549 or H1975 reporter cells, 4 h treatment, relative to untreated control)	NF-κB activity (NF-κB [3]; general statement of the inventors)	IL-1-induced NF-κB-dependent luciferase reporter activity (NF-κB [4])	anti-tumor effect [5]
10000 to 20000 nM	C#Cc1cccc(Nc2ncnc3cc(OCCOC)c(OCCOC)cc23)c1 [erlotinib]	~20 nM	about 36 hours	cleared predominantly by CYP3A4 methabolism	–	–	–	–	–
1000 to 2000 nM	CCN(CC)CCCC(C)Nc1c2ccc(Cl)cc2nc2ccc(OC)cc12 (stereo not shown) [quinacrine]	–	–	–	time-dependent increase of PARP cleavage	suppresses NF-κB-dependent luciferase reporter activity	profoundly suppresses NF-κB activity	suppresses interleukin-1 (IL-1)-induced NF-κB-dependent luciferase reporting activity	anti-tumor effect
